Assay results: patent US20210255193A1, “LYSINE REACTIVE PROBES AND USES THEREOF” (The Scripps Research Institute, priority 2017, published 2021)

How the values were obtained:
Assay in all cases: competitive isoTOP-ABPP
Type in all cases: binding
[1] = target: T1, LRRC20 Leucine-rich repeat-containing protein 20 (Homo sapiens, UniProt Q8TCA0); conditions: for isoTOP-ABPP reactivity ratio at lysine Q8TCA0_K43: 231 sol; for isoTOP-ABPP ratio, lysine Q8TCA0_K43: 50 uM_231_sol_in vitro
T1 construct: isoTOP-ABPP experiments performed in cell lysates (in vitro); endogenous in cells; host or cells: soluble proteome of human cancer cell lines (MDA-MB-231; Ramos and Jurkat also prepared)
T1 sequence (Q8TCA0 1-184): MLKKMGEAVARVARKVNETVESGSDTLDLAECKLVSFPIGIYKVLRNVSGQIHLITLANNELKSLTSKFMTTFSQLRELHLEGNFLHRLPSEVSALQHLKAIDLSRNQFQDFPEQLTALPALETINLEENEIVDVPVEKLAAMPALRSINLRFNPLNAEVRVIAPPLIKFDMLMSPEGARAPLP
Outline: (§1)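 Readout: isotopic light/heavy MS1 peak-area ratio (R, DMSO heavy over compound light), median across peptides sharing a modified lysine. Lysate received fragment (activated esters 50 μM, guanidinylating agents 100 μM final) or DMSO, then 0.1 mM STP-alkyne probe for 1 h at ambient temperature.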

[2] = target: T2, DNMT1 DNA (cytosine-5)-methyltransferase 1 (Homo sapiens, UniProt P26358); conditions: for isoTOP-ABPP reactivity ratio at lysine P26358_K45: 231 sol; for isoTOP-ABPP ratio, lysine P26358_K45: 50 uM_231_sol_in vitro
T2 construct: isoTOP-ABPP experiments performed in cell lysates (in vitro); endogenous in cells; host or cells: soluble proteome of human cancer cell lines (MDA-MB-231; Ramos and Jurkat also prepared)
Outline: as §1

[3] = target: T3, SLC25A5 ADP/ATP translocase 2 (Homo sapiens, UniProt P05141); conditions: for isoTOP-ABPP reactivity ratio at lysine P05141_K23: 231 sol; for isoTOP-ABPP ratio, lysine P05141_K23: 50 uM_231_sol_in vitro
T3 construct: isoTOP-ABPP experiments performed in cell lysates (in vitro); endogenous in cells; host or cells: MDA-MB-231 soluble lysate
T3 sequence (P05141 1-298): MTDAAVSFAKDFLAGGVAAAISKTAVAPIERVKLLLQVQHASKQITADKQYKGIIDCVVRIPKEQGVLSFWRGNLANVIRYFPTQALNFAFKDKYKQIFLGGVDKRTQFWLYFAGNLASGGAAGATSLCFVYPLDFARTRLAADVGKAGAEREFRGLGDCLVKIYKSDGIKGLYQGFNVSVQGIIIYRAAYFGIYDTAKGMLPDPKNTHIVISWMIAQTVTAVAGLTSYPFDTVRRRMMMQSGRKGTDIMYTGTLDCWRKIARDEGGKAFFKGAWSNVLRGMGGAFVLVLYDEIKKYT
Outline: as §1

SPAST Spastin = target: T4, SPAST Spastin (Homo sapiens, UniProt Q9UBP0); conditions: for isoTOP-ABPP reactivity ratio at lysine Q9UBP0_K180: 231 sol; for isoTOP-ABPP ratio, lysine Q9UBP0_K180: 50 uM_231_sol_in vitro
T4 construct: endogenous in cells; host or cells: MDA-MB-231 lysate
T4 sequence (Q9UBP0 1-616): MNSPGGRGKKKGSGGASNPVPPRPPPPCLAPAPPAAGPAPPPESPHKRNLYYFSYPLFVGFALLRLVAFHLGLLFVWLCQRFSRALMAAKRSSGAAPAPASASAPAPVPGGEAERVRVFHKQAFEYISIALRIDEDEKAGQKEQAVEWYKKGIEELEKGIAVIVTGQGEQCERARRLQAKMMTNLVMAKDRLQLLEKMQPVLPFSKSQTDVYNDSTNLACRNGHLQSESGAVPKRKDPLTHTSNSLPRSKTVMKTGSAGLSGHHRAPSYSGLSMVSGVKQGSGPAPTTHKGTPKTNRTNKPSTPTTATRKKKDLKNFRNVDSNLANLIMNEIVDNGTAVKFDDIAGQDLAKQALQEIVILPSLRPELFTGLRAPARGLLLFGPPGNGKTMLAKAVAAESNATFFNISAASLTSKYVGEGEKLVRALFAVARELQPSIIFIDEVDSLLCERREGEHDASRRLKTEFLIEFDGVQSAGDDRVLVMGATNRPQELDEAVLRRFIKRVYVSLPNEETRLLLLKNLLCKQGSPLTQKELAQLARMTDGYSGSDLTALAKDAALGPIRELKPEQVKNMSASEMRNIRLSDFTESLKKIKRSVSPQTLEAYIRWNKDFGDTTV
Outline: as §1

T2 sequence (P26358 whole entry): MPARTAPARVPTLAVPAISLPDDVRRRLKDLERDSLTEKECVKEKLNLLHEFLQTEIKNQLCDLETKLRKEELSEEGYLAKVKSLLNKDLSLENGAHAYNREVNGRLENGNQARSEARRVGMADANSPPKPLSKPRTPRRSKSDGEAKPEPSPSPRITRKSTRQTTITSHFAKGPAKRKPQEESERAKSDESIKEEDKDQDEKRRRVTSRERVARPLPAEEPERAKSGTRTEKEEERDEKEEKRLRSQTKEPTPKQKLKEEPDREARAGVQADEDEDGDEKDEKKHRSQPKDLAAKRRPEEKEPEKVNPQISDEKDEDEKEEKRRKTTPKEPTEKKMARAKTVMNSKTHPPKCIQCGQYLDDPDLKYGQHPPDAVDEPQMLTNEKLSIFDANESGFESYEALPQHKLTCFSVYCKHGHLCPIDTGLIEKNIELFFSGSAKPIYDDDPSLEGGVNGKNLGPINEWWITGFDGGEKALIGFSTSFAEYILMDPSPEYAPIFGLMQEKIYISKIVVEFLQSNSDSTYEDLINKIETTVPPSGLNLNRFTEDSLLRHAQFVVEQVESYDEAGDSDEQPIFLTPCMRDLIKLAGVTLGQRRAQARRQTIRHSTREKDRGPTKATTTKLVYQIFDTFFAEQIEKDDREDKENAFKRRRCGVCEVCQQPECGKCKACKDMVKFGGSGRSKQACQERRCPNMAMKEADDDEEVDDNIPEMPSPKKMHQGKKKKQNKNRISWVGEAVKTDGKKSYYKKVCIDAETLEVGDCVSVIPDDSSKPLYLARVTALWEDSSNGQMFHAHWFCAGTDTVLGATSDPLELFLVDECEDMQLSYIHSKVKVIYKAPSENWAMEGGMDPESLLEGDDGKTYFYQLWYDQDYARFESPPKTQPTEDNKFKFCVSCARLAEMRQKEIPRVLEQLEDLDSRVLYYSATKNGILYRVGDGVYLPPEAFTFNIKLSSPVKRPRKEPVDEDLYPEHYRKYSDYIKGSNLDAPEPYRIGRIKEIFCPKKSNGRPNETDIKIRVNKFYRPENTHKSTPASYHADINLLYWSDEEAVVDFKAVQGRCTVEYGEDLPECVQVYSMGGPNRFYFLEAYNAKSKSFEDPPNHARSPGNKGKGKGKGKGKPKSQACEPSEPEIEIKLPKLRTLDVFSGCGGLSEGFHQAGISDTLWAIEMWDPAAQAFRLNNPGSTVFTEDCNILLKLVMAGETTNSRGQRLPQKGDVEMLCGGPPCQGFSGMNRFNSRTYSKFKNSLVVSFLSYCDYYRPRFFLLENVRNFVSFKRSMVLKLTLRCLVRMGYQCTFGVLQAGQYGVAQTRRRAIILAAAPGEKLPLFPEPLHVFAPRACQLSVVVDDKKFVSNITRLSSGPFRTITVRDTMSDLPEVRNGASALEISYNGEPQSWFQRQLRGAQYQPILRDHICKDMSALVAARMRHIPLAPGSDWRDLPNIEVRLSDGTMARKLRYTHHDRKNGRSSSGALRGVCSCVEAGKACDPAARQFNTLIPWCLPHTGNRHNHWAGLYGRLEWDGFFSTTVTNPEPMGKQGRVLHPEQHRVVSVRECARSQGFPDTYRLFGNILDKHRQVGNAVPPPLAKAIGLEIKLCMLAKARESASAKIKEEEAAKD

Row | SMILES | isoTOP-ABPP reactivity ratio at lysine Q8TCA0_K43 ([1]; 50 uM, in vitro) | isoTOP-ABPP reactivity ratio at lysine P26358_K45 ([2]; 50 uM, in vitro) | isoTOP-ABPP reactivity ratio at lysine P05141_K23 ([3]; 50 uM, in vitro) | isoTOP-ABPP reactivity ratio at lysine Q9UBP0_K180 (SPAST Spastin; 50 uM, in vitro) | isoTOP-ABPP ratio, lysine Q8TCA0_K43 [1] | isoTOP-ABPP ratio, lysine P26358_K45 [2] | isoTOP-ABPP ratio, lysine P05141_K23 [3] | isoTOP-ABPP ratio, lysine Q9UBP0_K180 (SPAST Spastin) | also measured
1 | O=C(CCc1cn(-c2ccccc2)nc1-c1ccccc1)Oc1ccc([N+](=O)[O-])cc1[N+](=O)[O-] [fragment 29, 2,4-Dinitrophenyl 3-(1,3-diphenyl-1H-pyrazol-4-yl)propanoate] | 1.3 | 0.9 | 1.5 | 1.2 |  |  |  |  | 
2 | Cn1cc(CC(=O)Oc2ccc([N+](=O)[O-])cc2[N+](=O)[O-])c2ccccc21 [fragment 32, 2,4-Dinitrophenyl 2-(1-methyl-1H-indol-3-yl)acetate] | 1.6 | 1.0 | 1.8 | 2.5 |  |  |  |  | 
3 | O=C(Oc1ccc([N+](=O)[O-])cc1[N+](=O)[O-])c1ccc(Oc2ccccc2)cc1 [fragment 39, 2,4-Dinitrophenyl 4-phenoxybenzoate] |  |  |  |  |  |  |  |  | isoTOP-ABPP ratio (R) at liganded lysine Q8TCA0_K43 ([1]; 50 uM, in vitro, sol, 231): 0.9; isoTOP-ABPP ratio (R) at liganded lysine P26358_K45 ([2]; 50 uM, in vitro, sol, 231): 1.0; isoTOP-ABPP ratio (R) at liganded lysine P05141_K23 ([3]; 50 uM, in vitro, sol, 231): 0.9; isoTOP-ABPP ratio (R) at liganded lysine Q9UBP0_K180 (SPAST Spastin; 50 uM, in vitro, sol, 231): 1.4
4 | O=C(CCc1ccc2c(c1)OCO2)Oc1ccc([N+](=O)[O-])cc1[N+](=O)[O-] [fragment 45, 2,4-Dinitrophenyl 3-(benzo[d][1,3]dioxol-5-yl)propanoate] |  |  |  |  | 0.8 | 1.0 | 1.2 | 1.7 | 
5 | O=C(ON1C(=O)CCC1=O)c1cc(C(F)(F)F)cc(C(F)(F)F)c1 [fragment 46, 3,5-Bis(trifluoromethyl)benzoic acid NHS ester] |  |  |  |  | 1.3 | 2.4 | 0.9 | 4.4 | 
